Assay results published in patent US20050208496A1, “Methods of testing for bronchial asthma or chronic obstructive pulmonary disease” (Genox Research, Inc., priority 2002, published 2005).

System: mouse counterpart genes
Assay: Mouse GeneChip (MG-U74A to MG-U74C) analysis of lung and trachea of the OVA antigen-exposed bronchial hypersensitivity model, S-Sal group versus S-OVA group
Assay type: in vivo
Conditions: S-Sal vs S-OVA group

Substance: ovalbumin [OVA antigen, ovalbumin antigen used for sensitization and inhalation to induce bronchial hypersensitivity in mice]
- Fold Change, myxovirus (influenza virus) resistance 1 (mouse Probe ID 98417_at) (1st, P/A: A): 1.1
- Fold Change, myxovirus (influenza virus) resistance 2 (mouse Probe ID 102699_at) (1st, P/A: A): 1.2
- Fold Change, myxovirus (influenza virus) resistance 1 (mouse Probe ID 98417_at) (2nd, P/A: A): 2.2
- Fold Change, myxovirus (influenza virus) resistance 2 (mouse Probe ID 102699_at) (2nd, P/A: P): 0.909
- Fold Change, myxovirus (influenza virus) resistance 1 (mouse Probe ID 98417_at) (3rd, P/A: A): 3
- Fold Change, myxovirus (influenza virus) resistance 2 (mouse Probe ID 102699_at) (3rd, P/A: A): 1.3
